# Test system: MV-4-11 cells
# Test: Gene expression microarray analysis (Affymetrix PrimeView) and GSEA
# Type: cell-based, human
# Set-up: RFU PODN (11730768_x_at) / Fold change /veh PODN (11730768_x_at) / RFU LINC00158 (11744669_a_at) / Fold change /veh LINC00158 (11744669_a_at) / RFU DUSP10 (11751237_a_at) / Fold change /veh DUSP10 (11751237_a_at) / RFU ID3 (11757404_x_at) / Fold change /veh ID3 (11757404_x_at) / RFU PLEKHG5 (11737974_s_at) / Fold change /veh PLEKHG5 (11737974_s_at) / RFU LRRC4B (11730491_at) / Fold change /veh LRRC4B (11730491_at) / RFU GIMAP4 (11747438_a_at) / Fold change /veh GIMAP4 (11747438_a_at) / RFU KRT8 (11758183_x_at) / Fold change /veh KRT8 (11758183_x_at) / RFU CNN1 (11734310_a_at) / Fold change /veh CNN1 (11734310_a_at) / RFU VPS37D (11726825_at) / Fold change /veh VPS37D (11726825_at) / RFU C10orf10 (11716522_x_at) / Fold change /veh C10orf10 (11716522_x_at) / RFU KIR2DL2 /// KIR2DL4 /// KIR2DL5A /// KIR2DL5B /// KIR2DS1 /// KIR2DS2 /// KIR2DS3 /// KIR2DS4 /// KIR3DL3 /// KIR3DL3 /// KIR3DS1 (11738374_at) / Fold change /veh KIR2DL2 /// KIR2DL4 /// KIR2DL5A /// KIR2DL5B /// KIR2DS1 /// KIR2DS2 /// KIR2DS3 /// KIR2DS4 /// KIR3DL3 /// KIR3DL3 /// KIR3DS1 (11738374_at) / RFU C1QL1 (11718748_at) / Fold change /veh C1QL1 (11718748_at) / RFU TMPRSS4 (11747572_a_at) / Fold change /veh TMPRSS4 (11747572_a_at) / RFU HAMP (11756126_x_at) / Fold change /veh HAMP (11756126_x_at) / RFU RNFT2 (11725882_a_at) / Fold change /veh RNFT2 (11725882_a_at) / RFU NR4A2 (11747474_a_at) / Fold change /veh NR4A2 (11747474_a_at) / RFU ABCC12 (11746883_a_at) / Fold change /veh ABCC12 (11746883_a_at) / RFU TMEM136 (11760407_x_at) / Fold change /veh TMEM136 (11760407_x_at) / RFU CLDN22 /// WWC2 (11732394_at) / Fold change /veh CLDN22 /// WWC2 (11732394_at) / RFU HLA-DPB1 (11760878_x_at) / Fold change /veh HLA-DPB1 (11760878_x_at) / RFU SPINT1 (11716480_a_at) / Fold change /veh SPINT1 (11716480_a_at) / RFU GAP43 (11754022_s_at) / Fold change /veh GAP43 (11754022_s_at) / RFU A4GNT (11735810_at) / Fold change /veh A4GNT (11735810_at) / RFU PRB3 (11715151_x_at) / Fold change /veh PRB3 (11715151_x_at) / RFU TUBB4B (11761932_at) / Fold change /veh TUBB4B (11761932_at) / RFU CAPN14 (11732068_a_at) / Fold change /veh CAPN14 (11732068_a_at) / RFU TMCC2 (11721928_a_at) / Fold change /veh TMCC2 (11721928_a_at) / RFU IRGQ (11745062_a_at) / Fold change /veh IRGQ (11745062_a_at) / RFU FAM174B (11720279_a_at) / Fold change /veh FAM174B (11720279_a_at) / RFU TMPRSS4 (11748680_a_at) / Fold change /veh TMPRSS4 (11748680_a_at) / RFU FAM212B (11763350_a_at) / Fold change /veh FAM212B (11763350_a_at) / RFU PLEKHG5 (11743358_a_at) / Fold change /veh PLEKHG5 (11743358_a_at) / RFU ZSCAN30 (11745921_a_at) / Fold change /veh ZSCAN30 (11745921_a_at) / RFU CMKLR1 (11741424_a_at) / Fold change /veh CMKLR1 (11741424_a_at) / RFU LOC101060620 /// MAPK8IP1 (11723275_at) / Fold change /veh LOC101060620 /// MAPK8IP1 (11723275_at) / RFU SPTSSB (11747773_x_at) / Fold change /veh SPTSSB (11747773_x_at) / RFU PRSS12 (11739890_at) / Fold change /veh PRSS12 (11739890_at) / RFU BIN1 (11741810_x_at) / Fold change /veh BIN1 (11741810_x_at) / RFU WNT11 (11732464_a_at) / Fold change /veh WNT11 (11732464_a_at) / RFU C10orf10 (11716521_a_at) / Fold change /veh C10orf10 (11716521_a_at) / RFU C5orf56 (11738089_at) / Fold change /veh C5orf56 (11738089_at) / RFU CYB561 (11721691_x_at) / Fold change /veh CYB561 (11721691_x_at) / RFU ANKRD19P (11752326_a_at) / Fold change /veh ANKRD19P (11752326_a_at) / RFU OR2T12 /// OR2T33 /// OR2T8 (11738714_s_at) / Fold change /veh OR2T12 /// OR2T33 /// OR2T8 (11738714_s_at) / RFU VCAN (11748164_a_at) / Fold change /veh VCAN (11748164_a_at) / RFU JSRP1 (11732532_at) / Fold change /veh JSRP1 (11732532_at) / RFU KRTAP10-11 (11738290_x_at) / Fold change /veh KRTAP10-11 (11738290_x_at) / RFU MYO3A (11730013_a_at) / Fold change /veh MYO3A (11730013_a_at) / RFU EBF3 (11725865_a_at) / Fold change /veh EBF3 (11725865_a_at) / RFU CAMK2N1 (11719241_x_at) / Fold change /veh CAMK2N1 (11719241_x_at) / RFU C5orf56 (11738088_a_at) / Fold change /veh C5orf56 (11738088_a_at) / RFU OLFML3 (11715873_a_at) / Fold change /veh OLFML3 (11715873_a_at) / RFU LOC100653217 /// NTM (11731650_a_at) / Fold change /veh LOC100653217 /// NTM (11731650_a_at) / RFU MAPK11 (11762145_a_at) / Fold change /veh MAPK11 (11762145_a_at) / RFU FIZ1 (11724087_x_at) / Fold change /veh FIZ1 (11724087_x_at) / RFU OASL (11726364_x_at) / Fold change /veh OASL (11726364_x_at) / RFU SOX15 (11748057_x_at) / Fold change /veh SOX15 (11748057_x_at) / RFU CD79A (11719716_a_at) / Fold change /veh CD79A (11719716_a_at) / RFU HIST1H1D (11736915_at) / Fold change /veh HIST1H1D (11736915_at) / RFU CASKIN2 (11723855_a_at) / Fold change /veh CASKIN2 (11723855_a_at) / RFU LOC730098 (11760151_x_at) / Fold change /veh LOC730098 (11760151_x_at) / RFU OR4N2 (11742367_at) / Fold change /veh OR4N2 (11742367_at) / RFU PRRT2 (11749266_a_at) / Fold change /veh PRRT2 (11749266_a_at) / RFU SNX32 (11753110_a_at) / Fold change /veh SNX32 (11753110_a_at) / RFU CDHR5 (11726645_a_at) / Fold change /veh CDHR5 (11726645_a_at) / RFU RCAN1 (11760418_a_at) / Fold change /veh RCAN1 (11760418_a_at) / RFU FAM167A (11723789_a_at) / Fold change /veh FAM167A (11723789_a_at) / RFU FAM26E (11764081_at) / Fold change /veh FAM26E (11764081_at) / RFU ISYNA1 (11749810_s_at) / Fold change /veh ISYNA1 (11749810_s_at) / RFU ACY1 (11761880_at) / Fold change /veh ACY1 (11761880_at) / RFU 11764098_at / Fold change /veh 11764098_at / RFU SAMD14 (11745864_x_at) / Fold change /veh SAMD14 (11745864_x_at) / RFU NPB (11741838_a_at) / Fold change /veh NPB (11741838_a_at) / RFU TMPRSS6 (11731388_a_at) / Fold change /veh TMPRSS6 (11731388_a_at) / RFU KRTAP10-2 (11738614_at) / Fold change /veh KRTAP10-2 (11738614_at) / RFU ARHGAP8 /// PRR5-ARHGAP8 (11727945_x_at) / Fold change /veh ARHGAP8 /// PRR5-ARHGAP8 (11727945_x_at) / RFU KRTAP5-7 /// NADSYN1 (11734609_at) / Fold change /veh KRTAP5-7 /// NADSYN1 (11734609_at) / RFU RASL12 (11751679_a_at) / Fold change /veh RASL12 (11751679_a_at) / RFU CDKN2B (11736163_a_at) / Fold change /veh CDKN2B (11736163_a_at) / RFU PRF1 (11729649_at) / Fold change /veh PRF1 (11729649_at) / RFU, ZNF638 /// ZNF638-IT1 / Fold change vs veh, ZNF638 /// ZNF638-IT1 / RFU, PANK3 / Fold change vs veh, PANK3 / RFU, SH3YL1 / Fold change vs veh, SH3YL1 / RFU, ZEB2 / Fold change vs veh, ZEB2 / RFU, NRIP1 / Fold change vs veh, NRIP1 / RFU, PTTG1IP / Fold change vs veh, PTTG1IP / RFU, CAPN2 / Fold change vs veh, CAPN2 / RFU, MED14 / Fold change vs veh, MED14 / RFU, SNORA58 / Fold change vs veh, SNORA58 / RFU, C1orf63 / Fold change vs veh, C1orf63 / RFU, LRRFIP1 / Fold change vs veh, LRRFIP1 / RFU, NDUFAF7 / Fold change vs veh, NDUFAF7 / RFU, SLC12A2 / Fold change vs veh, SLC12A2 / RFU, IBTK / Fold change vs veh, IBTK / RFU, ESF1 / Fold change vs veh, ESF1 / Fold change vs veh, TMEM50B / RFU, TAOK1 / Fold change vs veh, TAOK1 / RFU, ACBD3 / Fold change vs veh, ACBD3 / RFU, TMA16 / Fold change vs veh, TMA16 / RFU, RWDD3 / Fold change vs veh, RWDD3 / RFU, BCAT1 / Fold change vs veh, BCAT1 / RFU, EDEM3 / Fold change vs veh, EDEM3 / RFU, TMEM33 / Fold change vs veh, TMEM33 / RFU, WDR75 / Fold change vs veh, WDR75 / RFU, AHCTF1 / Fold change vs veh, AHCTF1 / RFU, TFRC / Fold change vs veh, TFRC / RFU, ZDHHC17 / Fold change vs veh, ZDHHC17 / RFU, NOM1 / Fold change vs veh, NOM1 / RFU, ARL8B / Fold change vs veh, ARL8B / RFU, ZBTB11 / Fold change vs veh, ZBTB11 / RFU, TAMM41 / Fold change vs veh, TAMM41 / RFU, KIAA1704 /// LOC100996395 / Fold change vs veh, KIAA1704 /// LOC100996395 / RFU, ING1 / Fold change vs veh, ING1 / RFU, TRMT61B / Fold change vs veh, TRMT61B / RFU, FUBP3 / Fold change vs veh, FUBP3 / RFU, TP53 / Fold change vs veh, TP53 / RFU, TNKS2 / Fold change vs veh, TNKS2 / RFU, ZFP14 / Fold change vs veh, ZFP14 / RFU, ACTR2 / Fold change vs veh, ACTR2 / RFU, PPP3R1 / Fold change vs veh, PPP3R1 / RFU, PIK3R1 / Fold change vs veh, PIK3R1 / RFU, HNRNPA1 / Fold change vs veh, HNRNPA1 / RFU, RNF170 / Fold change vs veh, RNF170 / RFU, ZNF28 / Fold change vs veh, ZNF28 / RFU, RNGTT / Fold change vs veh, RNGTT / RFU, OGT / Fold change vs veh, OGT / RFU, BRD1 / Fold change vs veh, BRD1 / RFU, MARS / Fold change vs veh, MARS / RFU, ZNF655 / Fold change vs veh, ZNF655 / RFU, FAHD1 / Fold change vs veh, FAHD1 / RFU, BDP1 / Fold change vs veh, BDP1 / RFU, LRRCC1 / Fold change vs veh, LRRCC1 / RFU, ARID1A / Fold change vs veh, ARID1A / RFU, ZNF146 / Fold change vs veh, ZNF146 / RFU, ZNF330 / Fold change vs veh, ZNF330 / RFU, GPN3 / Fold change vs veh, GPN3 / RFU, C9orf123 / Fold change vs veh, C9orf123 / RFU, N4BP2L2 / Fold change vs veh, N4BP2L2 / RFU, ARFIP1 / Fold change vs veh, ARFIP1 / RFU, FAM179B / Fold change vs veh, FAM179B / RFU, BCL10 / Fold change vs veh, BCL10 / RFU, UHRF1BP1L / Fold change vs veh, UHRF1BP1L / RFU, BET1 / Fold change vs veh, BET1 / RFU, CNOT2 / Fold change vs veh, CNOT2 / RFU, ZNF268 / Fold change vs veh, ZNF268 / Fold change vs veh, ZNF507 / RFU, DGCR2 / Fold change vs veh, DGCR2 / RFU, WDSUB1 / Fold change vs veh, WDSUB1 / Fold change vs veh, HSP90B1 /// MIR3652 / RFU, ADSS / Fold change vs veh, ADSS / RFU, GK / Fold change vs veh, GK / RFU, ZNF148 / Fold change vs veh, ZNF148 / RFU, TAF9 / Fold change vs veh, TAF9 / RFU, SLC1A5 / Fold change vs veh, SLC1A5 / RFU, SLMO2 / Fold change vs veh, SLMO2 / RFU, ABCC4 / Fold change vs veh, ABCC4 / RFU, LOC101060439 /// RAP1B / Fold change vs veh, LOC101060439 /// RAP1B / RFU, RFX7 / Fold change vs veh, RFX7 / RFU, GTPBP10 / Fold change vs veh, GTPBP10 / RFU, CNEP1R1 / Fold change vs veh, CNEP1R1 / RFU, BIVM-ERCC5 /// ERCC5 / Fold change vs veh, BIVM-ERCC5 /// ERCC5 / RFU, ILF3 / Fold change vs veh, ILF3 / RFU 11762660_at / Fold change /veh 11762660_at / RFU VCAN (11757783_s_at) / Fold change /veh VCAN (11757783_s_at) / RFU DDX43 (11728927_at) / Fold change /veh DDX43 (11728927_at) / RFU KRT8 (11758188_x_at) / Fold change /veh KRT8 (11758188_x_at) / RFU NKD1 (11759106_at) / Fold change /veh NKD1 (11759106_at) / RFU SRD5A1 (11742802_a_at) / Fold change /veh SRD5A1 (11742802_a_at) / RFU TPSAB1 /// TPSB2 (11721975_s_at) / Fold change /veh TPSAB1 /// TPSB2 (11721975_s_at) / RFU GSTM3 (11746129_a_at) / Fold change /veh GSTM3 (11746129_a_at) / RFU IL23R (11737362_x_at) / Fold change /veh IL23R (11737362_x_at) / RFU TMEM51 (11727254_a_at) / Fold change /veh TMEM51 (11727254_a_at) / RFU PIWIL2 (11732686_x_at) / Fold change /veh PIWIL2 (11732686_x_at) / RFU ORM1 (11744905_x_at) / Fold change /veh ORM1 (11744905_x_at) / RFU CCDC152 (11743942_at) / Fold change /veh CCDC152 (11743942_at) / RFU ECM1 (11717891_a_at) / Fold change /veh ECM1 (11717891_a_at) / RFU IL23R (11748794_a_at) / Fold change /veh IL23R (11748794_a_at) / RFU TNFAIP8L3 (11732012_x_at) / Fold change /veh TNFAIP8L3 (11732012_x_at) / RFU MBOAT4 (11741988_at) / Fold change /veh MBOAT4 (11741988_at) / RFU 11764193_at / Fold change /veh 11764193_at / RFU TMEM53 (11763286_at) / Fold change /veh TMEM53 (11763286_at) / RFU MAGEB2 (11727129_at) / Fold change /veh MAGEB2 (11727129_at) / RFU TMEM200A (11744735_a_at) / Fold change /veh TMEM200A (11744735_a_at) / RFU CCDC152 (11751479_a_at) / Fold change /veh CCDC152 (11751479_a_at) / RFU FAM211A (11726209_a_at) / Fold change /veh FAM211A (11726209_a_at) / RFU RGS16 (11746705_a_at) / Fold change /veh RGS16 (11746705_a_at) / RFU VCAN (11755009_s_at) / Fold change /veh VCAN (11755009_s_at) / RFU RHOB (11743442_s_at) / Fold change /veh RHOB (11743442_s_at) / RFU RGS16 (11720943_a_at) / Fold change /veh RGS16 (11720943_a_at) / RFU RGS16 (11720944_at) / Fold change /veh RGS16 (11720944_at) / RFU, VPS4B / Fold change vs veh, VPS4B / RFU, CREB1 / Fold change vs veh, CREB1 / RFU, DNAJC13 / Fold change vs veh, DNAJC13 / RFU, GNAQ / Fold change vs veh, GNAQ / RFU, CDK5R1 / Fold change vs veh, CDK5R1 / RFU, ZRANB3 / Fold change vs veh, ZRANB3 / RFU, CUL4A / Fold change vs veh, CUL4A / RFU, CCNY / Fold change vs veh, CCNY / RFU, UFL1 / Fold change vs veh, UFL1 / RFU, COG3 / Fold change vs veh, COG3 / RFU, DIAPH2 / Fold change vs veh, DIAPH2 / RFU, SKA2 / Fold change vs veh, SKA2 / RFU, AFF3 / Fold change vs veh, AFF3 / RFU, LMF1 / Fold change vs veh, LMF1 / RFU, IPO11 / Fold change vs veh, IPO11 / RFU, DFFB / Fold change vs veh, DFFB / RFU, FOXP1 / Fold change vs veh, FOXP1 / RFU, CARD8 / Fold change vs veh, CARD8 / RFU, STRN3 / Fold change vs veh, STRN3 / RFU, ADK / Fold change vs veh, ADK / RFU, RASSF2 / Fold change vs veh, RASSF2 / RFU, WIPF1 / Fold change vs veh, WIPF1 / RFU, LARP1B / Fold change vs veh, LARP1B / RFU, RASA1 / Fold change vs veh, RASA1 / RFU, RB1 / Fold change vs veh, RB1 / RFU, PPFIA1 / Fold change vs veh, PPFIA1 / RFU, MAT2A / Fold change vs veh, MAT2A / RFU, CCT5 / Fold change vs veh, CCT5 / RFU, WDR92 / Fold change vs veh, WDR92 / RFU, CUX1 / Fold change vs veh, CUX1 / RFU, TTC7A / Fold change vs veh, TTC7A / RFU, TMEM135 / Fold change vs veh, TMEM135 / RFU, DEPTOR / Fold change vs veh, DEPTOR / RFU, CPM / Fold change vs veh, CPM / RFU, DNAJB6 / Fold change vs veh, DNAJB6 / RFU, CACNA2D3 / Fold change vs veh, CACNA2D3 / RFU, DTX4 / Fold change vs veh, DTX4 / RFU, TFCP2 / Fold change vs veh, TFCP2 / RFU, GMCL1 /// GMCL1P1 / Fold change vs veh, GMCL1 /// GMCL1P1 / RFU, AEBP2 / Fold change vs veh, AEBP2 / RFU, SNHG1 /// SNORD22 /// SNORD25 /// SNORD26 /// SNORD27 /// SNORD28 /// SNORD29 /// SNORD31 / Fold change vs veh, SNHG1 /// SNORD22 /// SNORD25 /// SNORD26 /// SNORD27 /// SNORD28 /// SNORD29 /// SNORD31 / Fold change (Aza/veh), C12orf56 (ProbeSet 11735607_a_at) / Fold change (ACY-1035/veh), C12orf56 (ProbeSet 11735607_a_at) / Fold change (Aza/veh), FGFR1OP (ProbeSet 11751329_s_at) / Fold change (ACY-1035/veh), FGFR1OP (ProbeSet 11751329_s_at) / Fold change (Aza/veh), VPS36 (ProbeSet 11739960_a_at) / Fold change (ACY-1035/veh), VPS36 (ProbeSet 11739960_a_at) / RFU SYPL1 (11715823_x_at) / Fold change /veh SYPL1 (11715823_x_at) / RFU IGFBP7 (11715501_s_at) / Fold change /veh IGFBP7 (11715501_s_at) / RFU REEP3 (11722064_at) / Fold change /veh REEP3 (11722064_at) / RFU IGLL1 (11728026_x_at) / Fold change /veh IGLL1 (11728026_x_at): dose or concentration left out as unconfirmed
# Settings: ProbeSet 11743286_at; LIST D
structure (smiles),measurement,value
Nc1ccc(-c2cccs2)cc1NC(=O)c1ccc2c(c1)cc(C1CC1)n2CCN1CCOCC1 [ACY-1035],"Fold change vs veh, DTX4",0.97
